One experiment concerns the target T1, NDM-1 (Klebsiella pneumoniae, UniProt C7C422).
T1 construct: made in house
The experiment is described as follows: Dose rate inhibition studies for IC50 determination, NDM-1 enzymatic assay. It is filed as biochemical. The settings on record: inhibitor 0-800 μM, 3 parallel measurements, N.I. = no enzyme inhibitory activity observed; for IC50: Enzyme IC50 NDM-1, 10 nM NDM-1, 100 μM ZnCl2, imipenem substrate; for Enzyme IC50 NDM-1: 10 nM NDM-1, 100 μM ZnCl2, imipenem substrate. The method, then: (§1) The […] synthesized compounds 5a–l were tested for their inhibitory activities against NDM-1, VIM-2 (Table 1), and GIM-1 in an in vitro enzymatic assay (ESI ^†).[41] The inhibitory activity was measured using enzyme concentrations of 0.1 nM VIM-2, 10 nM NDM-1 or 1 nM GIM-1, with an excess Zn(II) (100 μM, see Experimental methods), with inhibitor compounds with concentrations from 0 to 800 μM. Each data point was measured in triplicates. […] This is in line with previous reports.[42,43]
(§2) A 100 μl solution with buffer (50 mM HEPES (pH 7.2), 100 μM ZnCl2, 2.5% DMSO), purified enzyme (0.1 nM VIM-2, 10 nM NDM-1 or 1 nM GIM-1) and 800–0 μM inhibitor was incubated in a 96 well plate at 25 °C for 5 min. In addition, the enzyme buffer contained 400 μg ml^−1 bovine serum albumin (BSA) to prevent protein unfolding and loss of activity due to low concentrations.[67,68] 100 μM of the reporter substrate nitrocefin (VIM-2, GIM-1) or imipenem (NDM-1) was added to the enzyme–inhibitor solution and the increase in absorbance at 482 nm (nitrocefin) or 300 nm (imipenem) was recorded on a Spectramax M4 spectrophotometer (Molecular Devices). Each data point was performed in triplicates and the initial velocity for each inhibitor concentration was analyzed by a log [inhibitor] vs. response curve fitting to calculate IC50 in GraphPad Prism 9.2 software.

For the next experiment, the target named is T2, VIM-2 (Escherichia coli, UniProt Q5U7L7).
T2 construct: made in house
The experiment in a line: Dose rate inhibition studies for IC50 determination, VIM-2 enzymatic assay. The class given is biochemical. To be noted: inhibitor 0-800 μM, 3 parallel measurements, N.I. = no enzyme inhibitory activity observed; for IC50: Enzyme IC50 VIM-2, 0.1 nM VIM-2, 100 μM ZnCl2, nitrocefin substrate. As for the experimental part:
as §1, §2

The next experiment has as its target T3, 15N-labelled VIM-2 (Escherichia coli, UniProt Q5U7L7).
T3 construct: made in house
The experiment in a line: 1H,15N HSQC NMR chemical shift perturbation titration, VIM-2. The class given is binding. To be noted: VIM-2 Kd, 0-16 equiv. ligand, pH 7.0, 310 K. The method, then: (§3) Solution NMR spectroscopy is a powerful tool to assess protein–ligand interactions under close to physiological conditions.[47] We, therefore, performed NMR chemical shift perturbation (CSP, for details, see section S8, ESI ^†) experiments to identify the amino acid residues of NDM-1 and VIM-2 that are involved in inhibitor binding, making use of the previously published protein assignments.[48,49] Titrations were conducted using ^15N-labelled proteins with 0, 0.5, 1, 2, 4, 8, and 16 equiv. of 5 inhibitors for NDM-1 and of 7 inhibitors for VIM-2.
(§4) For the titrations, ^15N-labelled NDM-1 and ^15N-labelled VIM-2 (250 μM), and titrated ligands (0.5 equiv. in 1 μL) were prepared in the same buffer as the protein (20 mM KPO4, 0.1 mM ZnCl2, pH 7.0 with 10% D2O and 2.5% DMSO-d6). ^1H,^15N HSQC spectra were acquired with 128 × 1024 complex points (F1 × F2) and spectral width of 9090 × 2740 Hz on ^15N-labeled NDM-1/VIM-2 and with every titration step up to 1 : 16 ratio between protein : ligand (0, 0.5, 1, 2, 4, 8, and 16 equiv. of ligand). All experiments were recorded on a Bruker 600 MHz spectrometer at 310 K equipped with a 5 mm TCI cryogenic probe. The NMR data were processed on the MestReNova software with the Mnova Binding plugin. The weighted average chemical shift perturbations (CSP) for the backbone amides were calculated from the observed chemical shift differences in the proton and nitrogen dimensions using the equation (chemical shift scaling factors: FH = 1, FN = 0.156) CSP = Δδ1H,15N = [drawing 13] .
(§5) 7. Chemical shift perturbation histograms
(§6) Chemical shift perturbation was calculated according equation (1) 2
(§7) CSP = Δδ(1H,15N) = √(Δδ1H2 + (1⁄R × Δδ15N2) Rscale = 6.5 (1)
(§8) Where Δδ1H is the chemical shift change for proton dimension, Δδ15N is the chemical shift change for nitrogen dimension, Rscale is a
(§9) The chemical shift perturbations (CSP) were classified as significant (SSP) when the observed Δδ(1H,15N) was greater than the population
(§10) mean plus the standard deviation (µ+1σ) – solid line; (µ+2σ) – dashed line, and (µ+3σ) – dashed line.
(§11) Further on, Kd was calculated according: 3
(§12) ([P]+[L]+Kd)− √([P]+[L]+Kd)2−4[P][L]
(§13) ΔδmaxΔδobs = Δδmax 2[P] (2)
(§14) Where Kd is the dissociation constant, [P] and [L] are protein and ligand concentrations, respectively. Δδmax were estimated in
(§15) MestReNova by extrapolation of the obser ved chemical shift differences Δδobs.

The target of another experiment is T4, 15N-labelled NDM-1 (Klebsiella pneumoniae, UniProt C7C422).
T4 construct: made in house
T4 sequence (C7C422 29-270 limits assumed): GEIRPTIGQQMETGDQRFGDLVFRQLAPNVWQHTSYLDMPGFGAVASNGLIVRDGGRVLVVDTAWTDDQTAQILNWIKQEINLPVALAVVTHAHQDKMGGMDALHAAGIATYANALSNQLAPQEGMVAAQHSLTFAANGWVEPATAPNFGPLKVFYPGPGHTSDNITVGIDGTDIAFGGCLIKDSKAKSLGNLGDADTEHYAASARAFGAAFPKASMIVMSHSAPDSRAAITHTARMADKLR
The experiment is described as follows: 1H,15N HSQC NMR chemical shift perturbation titration, NDM-1. The class given is binding. As for the experimental part: as §3, §4, §5, §6, §7, §8, §9, §10, §11, §12, §13, §14, §15

Where a name gives a salt, the structure may show the parent alone.

A word on the IC50: it is the point on the concentration scale where inhibition reaches its midpoint. A low value points to higher potency. Broadly, the Kd is the equilibrium constant for the complex coming apart.

T1 sequence (C7C422 29-270 limits assumed): as above

For `O=C(Cc1ccsc1)NC(C1CCCCN1)P(=O)(O)O` (centres unmarked) [Compound 5j-1, (Piperidin-2-yl(2-(thiophen-3-yl)acetamido)methyl)phos-phonic acid hydrochloride], the values for the IC50 on NDM-1 and against VIM-2 were 0.506 ± 0.333 mM and 0.319 ± 0.069 mM, respectively. Moreover, the Kd at 15N-labelled VIM-2 is 0.9 ± 0.1 mM; at 15N-labelled NDM-1 (Estimated binding constant (Kd), residue 070F, Table S5, per-residue fit, NDM-1 070F), 2.54 mM; on 15N-labelled NDM-1 (Estimated binding constant (Kd), residue 091T, Table S5, per-residue fit, NDM-1 091T) it was 2.11 mM; on 15N-labelled NDM-1 (Estimated binding constant (Kd), residue 108E, Table S5, per-residue fit, NDM-1 108E), 3.54 mM; on 15N-labelled NDM-1 (Estimated binding constant (Kd), residue 119T, Table S5, per-residue fit, NDM-1 119T), 7.97 mM; on 15N-labelled NDM-1 (Estimated binding constant (Kd), residue 124D, Table S5, per-residue fit, NDM-1 124D), 12.4 mM. In addition, the Kd on 15N-labelled NDM-1 (Estimated binding constant (Kd), residue 127G, Table S5, per-residue fit, NDM-1 127G) was 12.4 mM; on 15N-labelled NDM-1 (Estimated binding constant (Kd), residue 133H_225D, Table S5, per-residue fit, NDM-1 133H_225D), 1.42 mM; at 15N-labelled NDM-1 (Estimated binding constant (Kd), residue 149A, Table S5, per-residue fit, NDM-1 149A), 3.18 mM; at 15N-labelled NDM-1 (Estimated binding constant (Kd), residue 152E, Table S5, per-residue fit, NDM-1 152E), 32.9 mM; on 15N-labelled NDM-1 (Estimated binding constant (Kd), residue 159H, Table S5, per-residue fit, NDM-1 159H), 8.39 mM; on 15N-labelled NDM-1 (Estimated binding constant (Kd), residue 160S, Table S5, per-residue fit, NDM-1 160S), 15.7 mM. For the same compound, the Kd is 6.63 mM on 15N-labelled NDM-1 (Estimated binding constant (Kd), residue 188G, Table S5, per-residue fit, NDM-1 188G); 6.1 mM on 15N-labelled NDM-1 (Estimated binding constant (Kd), residue 194I, Table S5, per-residue fit, NDM-1 194I); 3.05 mM on 15N-labelled NDM-1 (Estimated binding constant (Kd), residue 197G, Table S5, per-residue fit, NDM-1 197G); 8.41 mM at 15N-labelled NDM-1 (Estimated binding constant (Kd), residue 205F, Table S5, per-residue fit, NDM-1 205F); 7.72 mM at 15N-labelled NDM-1 (Estimated binding constant (Kd), residue 206G, Table S5, per-residue fit, NDM-1 206G); 1.96 mM on 15N-labelled NDM-1 (Estimated binding constant (Kd), residue 214K, Table S5, per-residue fit, NDM-1 214K). Also, the Kd on 15N-labelled NDM-1 (Estimated binding constant (Kd), residue 217S, Table S5, per-residue fit, NDM-1 217S) is 8.15 mM; on 15N-labelled NDM-1 (Estimated binding constant (Kd), residue 228H, Table S5, per-residue fit, NDM-1 228H), 4.94 mM; on 15N-labelled NDM-1 (Estimated binding constant (Kd), residue 229Y, Table S5, per-residue fit, NDM-1 229Y), 1.31 mM; on 15N-labelled NDM-1 (Estimated binding constant (Kd), residue 230A, Table S5, per-residue fit, NDM-1 230A), 8.81 mM; at 15N-labelled NDM-1 (Estimated binding constant (Kd), residue 232S, Table S5, per-residue fit, NDM-1 232S) it was 21.3 mM; on 15N-labelled NDM-1 (Estimated binding constant (Kd), residue 248M, Table S5, per-residue fit, NDM-1 248M), 8.64 mM. Also, the Kd on 15N-labelled NDM-1 (Estimated binding constant (Kd), residue 249S, Table S5, per-residue fit, NDM-1 249S) was 34 mM; on 15N-labelled NDM-1 (Estimated binding constant (Kd), residue 251S, Table S5, per-residue fit, NDM-1 251S), 12.3 mM; on 15N-labelled NDM-1 (Estimated binding constant (Kd), residue 254D, Table S5, per-residue fit, NDM-1 254D) it was 9.29 mM; on 15N-labelled NDM-1 (Estimated binding constant (Kd), residue 255S, Table S5, per-residue fit, NDM-1 255S) it was 18.6 mM; on 15N-labelled NDM-1 (NDM-1 Kd, NMR chemical shift perturbation, 0-16 equiv. ligand, pH 7.0, 310 K), 2.2 ± 0.2 mM.
For the compound `O=C(NC(C1CCCCN1)P(=O)(O)O)c1cccs1` (centres unmarked) [Compound 5b-2, (Piperidin-2-yl(thiophene-2-carboxamido)methyl)phos-phonic acid hydrochloride], the “Enzyme IC50 NDM-1” value at NDM-1 is listed as “N.I”. The compound also gave an IC50 against VIM-2 of 0.0072 ± 0.0004 mM. For the same compound, the Kd on 15N-labelled VIM-2 worked out at 1.4 ± 0.1 mM.
`O=C(NC(C1CCCCN1)P(=O)(O)O)c1cc2ccccc2s1` (centres unmarked) [Compound 5g-1, ((Benzo[b]thiophene-2-carboxamido)(piperidin-2-yl)methyl)phosphonic acid hydrochloride]: the IC50 against NDM-1 was determined as 0.0467 ± 0.0097 mM; against VIM-2, 0.045 ± 0.005 mM.
Regarding `Cl.O=C(NC(C1CCCCN1)P(=O)(O)O)c1cc2c(s1)CCCC2` (centres unmarked) [Compound 5d-1, (Piperidin-2-yl(4,5,6,7-tetrahydrobenzo[b]thiophene-2-carboxamido)methyl)phosphonic acid hydrochloride], the “Enzyme IC50 NDM-1” value at NDM-1 was “N.I”. Further, at VIM-2, the IC50 worked out at 0.244 ± 0.035 mM.
On to `O=C(Cc1ccsc1)NC(C1CCCCN1)P(=O)(O)O` (centres unmarked) [Compound 5j-2, (Piperidin-2-yl(2-(thiophen-3-yl)acetamido)methyl)phos-phonic acid hydrochloride], for which the “Enzyme IC50 NDM-1” value at NDM-1 is listed as “N.I”. In addition, the “Enzyme IC50 VIM-2” value at VIM-2 (0.1 nM VIM-2, 100 μM ZnCl2, nitrocefin substrate) is given as “N.I”.
`O=C(NC(C1CCCCN1)P(=O)(O)O)c1cc2ccccc2s1` (centres unmarked) [Compound 5g-2, ((Benzo[b]thiophene-2-carboxamido)(piperidin-2-yl)methyl)phosphonic acid hydrochloride]: the IC50 at NDM-1 was 0.0468 ± 0.0055 mM; at VIM-2, 0.0041 ± 0.0021 mM.
`Cc1[nH]c(=S)sc1CC(=O)NC(C1CCCCN1)P(=O)(O)O` (centres unmarked) [Compound 5a-1, ((2-(4-Methyl-2-thioxo-2,3-dihydrothiazol-5-yl)acet-amido)(piperidin-2-yl)methyl)phosphonic acid hydro-chloride]: the “Enzyme IC50 NDM-1” value on NDM-1 was “N.I. ^b”. Moreover, at VIM-2, the IC50 was found to be 0.353 ± 0.062 mM. The Kd on 15N-labelled VIM-2 is 0.9 ± 0.1 mM.
Regarding `O=C(NC(C1CCCCN1)P(=O)(O)O)c1ccsc1` (centres unmarked) [Compound 5c-2, (Piperidin-2-yl(thiophene-3-carboxamido)methyl)phos-phonic acid hydrochloride], the “Enzyme IC50 NDM-1” value at NDM-1 is reported as “N.I”. In addition, the IC50 on VIM-2 was found to be 0.0146 ± 0.0023 mM.
